≈ marks a conversion by molar mass, not a printed value. Calls of active or inactive are those of the source. The rule behind the calls is not given here.
What was measured:
[1] = biological target: Serine/threonine-protein kinase pim-1 (Homo sapiens, UniProt P11309); test: Inhibition of PIM1 (unknown origin) assessed as reduction in BAD phosphorylation at Ser-112 residue by TR-FRET assay
[2] = biological target: Serine/threonine-protein kinase pim-2 (Homo sapiens, UniProt Q9P1W9); test: Inhibition of PIM2 (unknown origin) assessed as reduction in BAD phosphorylation at Ser-112 residue by TR-FRET assay
[3] = Thermodynamic solubility in pH 7.4 solution; format: physicochemical; settings: buffer, read-out: Therm_solubility
[4] = biological target: Voltage-gated inwardly rectifying potassium channel KCNH2 (Homo sapiens, UniProt Q12809); test: Inhibition of human ERG
[5] = biological target: Serine/threonine-protein kinase PIM (Homo sapiens, UniProt P11309+Q9P1W9+Q86V86); test: Inhibition of PIM in human KG1 cells assessed as reduction in pS6 level; format: cell-based
KG-1 [6] = test: Antiproliferative activity against human KG1 cells; format: functional, cell-based; settings: Homo sapiens, KG-1
[7] = Permeability in human Caco2/TC7 cells at 5 uM; format: ADME, cell-based; settings: Caco-2, read-out: permeability
[8] = Clearance in human liver microsomes assessed as drug extraction at 5 uM; format: ADME, Microsome; settings: liver microsomes, read-out: CLH
[9] = Clearance in mouse liver microsomes assessed as drug extraction at 5 uM; format: ADME, Microsome; settings: liver microsomes, read-out: CLH
[10] = AUC (0 to infinity) in rat at 3 mg/kg, iv administered as single dose; format: ADME, organism-based; set-up: dose 3 mg/kg, route intravenous, time infinity; settings: in vivo
[11] = AUC (0 to infinity) in rat at 10 mg/kg, po administered as single dose; format: ADME, organism-based; set-up: dose 10 mg/kg, route oral, time infinity; settings: in vivo
[12] = Cmax in rat at 10 mg/kg, po administered as single dose; format: ADME, organism-based; set-up: dose 10 mg/kg, route oral; settings: in vivo
[13] = Half life in rat at 3 mg/kg, iv administered as single dose; format: ADME, organism-based; settings: in vivo
[14] = Half life in rat at 10 mg/kg, po administered as single dose; format: ADME, organism-based; settings: in vivo
[15] = Oral bioavailability in rat at 10 mg/kg administered as single dose; format: ADME, organism-based; settings: in vivo
[16] = Clearance in rat at 3 mg/kg, iv administered as single dose; format: ADME, organism-based; settings: in vivo
[17] = Volume of distribution at steady state in rat at 3 mg/kg, iv administered as single dose; format: ADME, organism-based; settings: in vivo, read-out: Vdss
[18] = biological target: Glycogen synthase kinase-3 beta (Homo sapiens) (UniProt P49841); test: Inhibition of GSK3beta (unknown origin) at 0.1 uM relative to control
[19] = biological target: Cyclin-dependent kinase 5 (Homo sapiens) (UniProt Q00535); test: Inhibition of CDK5 (unknown origin) at 0.1 uM relative to control
[20] = biological target: Glycogen synthase kinase-3 alpha (Homo sapiens) (UniProt P49840); test: Inhibition of GSK3alpha (unknown origin) at 0.1 uM relative to control
[21] = biological target: Cyclin-dependent kinase 3 (Homo sapiens) (UniProt Q00526); test: Inhibition of CDK3 (unknown origin) at 0.1 uM relative to control
[22] = biological target: Cyclin-dependent kinase 2 (Homo sapiens) (UniProt P24941); test: Inhibition of CDK2 (unknown origin) at 0.1 uM relative to control
[23] = biological target: T1, Dual specificity tyrosine-phosphorylation-regulated kinase 3 (Homo sapiens) (UniProt O43781); test: Inhibition of DYRK3 (unknown origin) at 0.1 uM relative to control
T1 sequence (whole entry): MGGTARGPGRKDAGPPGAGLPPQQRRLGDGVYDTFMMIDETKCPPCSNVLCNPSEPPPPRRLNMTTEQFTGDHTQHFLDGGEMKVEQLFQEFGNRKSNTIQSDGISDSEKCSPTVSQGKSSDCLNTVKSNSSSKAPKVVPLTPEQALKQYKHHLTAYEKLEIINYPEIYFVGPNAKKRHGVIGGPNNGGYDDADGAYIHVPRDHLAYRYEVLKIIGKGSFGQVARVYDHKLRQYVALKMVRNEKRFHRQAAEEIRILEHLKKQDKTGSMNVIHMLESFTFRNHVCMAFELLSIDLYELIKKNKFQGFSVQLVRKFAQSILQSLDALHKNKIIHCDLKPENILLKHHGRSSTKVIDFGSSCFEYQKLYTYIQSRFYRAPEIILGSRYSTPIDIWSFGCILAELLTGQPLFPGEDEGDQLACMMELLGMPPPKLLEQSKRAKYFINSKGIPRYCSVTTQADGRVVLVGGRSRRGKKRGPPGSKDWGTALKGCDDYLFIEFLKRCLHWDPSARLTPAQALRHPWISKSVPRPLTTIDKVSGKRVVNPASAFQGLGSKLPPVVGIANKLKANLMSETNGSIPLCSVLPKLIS

[24] = biological target: Ribosomal protein S6 kinase alpha-2 (Homo sapiens) (UniProt Q15349); test: Inhibition of RSK3 (unknown origin) at 0.1 uM relative to control
[25] = biological target: Cyclin-dependent kinase 1 (Homo sapiens) (UniProt P06493); test: Inhibition of CDK1 (unknown origin) at 0.1 uM relative to control
[26] = biological target: Glycogen synthase kinase-3 beta (Homo sapiens) (UniProt P49841); test: Inhibition of GSK3beta (unknown origin) at 1 uM relative to control
[27] = biological target: Cyclin-dependent kinase 5 (Homo sapiens) (UniProt Q00535); test: Inhibition of CDK5 (unknown origin) at 1 uM relative to control
[28] = biological target: Glycogen synthase kinase-3 alpha (Homo sapiens) (UniProt P49840); test: Inhibition of GSK3alpha (unknown origin) at 1 uM relative to control
[29] = biological target: Cyclin-dependent kinase 3 (Homo sapiens) (UniProt Q00526); test: Inhibition of CDK3 (unknown origin) at 1 uM relative to control
[30] = biological target: Cyclin-dependent kinase 2 (Homo sapiens) (UniProt P24941); test: Inhibition of CDK2 (unknown origin) at 1 uM relative to control
[31] = biological target: T1, Dual specificity tyrosine-phosphorylation-regulated kinase 3 (Homo sapiens); test: Inhibition of DYRK3 (unknown origin) at 1 uM relative to control
[32] = biological target: Ribosomal protein S6 kinase alpha-2 (Homo sapiens) (UniProt Q15349); test: Inhibition of RSK3 (unknown origin) at 1 uM relative to control
[33] = biological target: Cyclin-dependent kinase 1 (Homo sapiens) (UniProt P06493); test: Inhibition of CDK1 (unknown origin) at 1 uM relative to control
Mus musculus [34] = test: In vivo inhibition of PIM in mouse xenografted with human KG1 cells assessed as reduction in phosphorylated BAD level at 25 mg/kg, po administered as single dose and measured at 8 hrs post dose relative to control; format: functional; settings: KG-1, po
Mus musculus [35] = test: In vivo inhibition of PIM in mouse xenografted with human KG1 cells assessed as reduction in phosphorylated BAD level at 25 mg/kg, po administered as single dose and measured up to 24 hrs post dose relative to control; format: functional
[36] = Drug uptake in tumor of mouse xenografted with human KG1 cells at 25 mg/kg, po administered as single dose and measured at 8 hrs post dose; format: ADME, organism-based, Neoplasm; settings: read-out: Drug uptake
[37] = Drug uptake in tumor of mouse xenografted with human KG1 cells at 25 mg/kg, po administered as single dose and measured at 24 hrs post dose; format: ADME, organism-based, Neoplasm; settings: read-out: Drug uptake
[38] = Plasma concentration in mouse xenografted with human KG1 cells at 25 mg/kg, po administered as single dose and measured at 8 hrs post dose; format: ADME, organism-based
[39] = Plasma concentration in mouse xenografted with human KG1 cells at 25 mg/kg, po administered as single dose and measured at 24 hrs post dose; format: ADME, organism-based
[40] = Protein binding in mouse plasma; format: ADME, cell-free; settings: read-out: PPB (converted)
[41] = Toxicity in nude mouse xenografted with human KG1 cells assessed as body weight loss at 12.5 to 50 mg/kg, po bid for 18 days relative to control; format: organism-based; settings: in vivo, 432 h
KG-1 [42] = test: Antitumor activity against human KG1 cells xenografted in nude mouse assessed as tumor growth at 12.5 mg/kg, po bid for 18 days relative to control; format: functional
KG-1 [43] = test: Antitumor activity against human KG1 cells xenografted in nude mouse assessed as tumor growth at 25 mg/kg, po bid for 18 days relative to control; format: functional
KG-1 [44] = test: Antitumor activity against human KG1 cells xenografted in nude mouse assessed as tumor growth at 50 mg/kg, po bid for 18 days relative to control; format: functional
[45] = Cmax in nude mouse xenografted with human KG1 cells at 12.5 mg/kg, po bid for 18 days measured at 8 hrs post last dose; format: ADME, organism-based; set-up: dose 12.5 mg/kg, route oral; settings: in vivo
[46] = Cmax in nude mouse xenografted with human KG1 cells at 25 mg/kg, po bid for 18 days measured at 8 hrs post last dose; format: ADME, organism-based; set-up: dose 25 mg/kg, route oral; settings: in vivo
[47] = Cmax in nude mouse xenografted with human KG1 cells at 50 mg/kg, po bid for 18 days measured at 8 hrs post last dose; format: ADME, organism-based; set-up: dose 50 mg/kg, route oral; settings: in vivo
[48] = Efflux ratio of permeability in human Caco2/TC7 cells at 5 uM; format: ADME, cell-based; settings: Caco-2
hERG (KCNH2) [49] = biological target: T2, hERG (KCNH2) (Homo sapiens, UniProt Q12809); test: Inhibition of human ERG at 10 uM relative to control
hERG (KCNH2) [50] = biological target: T2, hERG (KCNH2); test: Inhibition of human ERG at 1 uM relative to control

## COCCC#Cc1c(Cl)c2c(Cl)cc(C(N)=O)nc2n1[C@H]1CCCNC1
[1]
  IC50: 0.8 nM
  Ki: 0.4 nM
[2]
  IC50: 5.1 nM
[3]
  solubility thermodynamic: 86 µM (≈ 34 µg/mL)
[4]
  IC50: 3000 nM
[5]
  EC50: 27 nM
KG-1 [6]
  EC50: 39 nM
[7]
  Papp at 5 µM: 41 nm/s
[8]
  hepatic extraction ratio at 5 µM: 0.23
[9]
  hepatic extraction ratio at 5 µM: 0.5
[10]
  AUC(0-inf): 0.405 µg·h/mL
[11]
  AUC(0-inf): 0.643 µg·h/mL
[12]
  Cmax: 0.092 µg/mL
[13]
  half-life: 2.75 h
[14]
  half-life: 3.59 h
[15]
  bioavailability: 46%
[16]
  clearance: 6.8 L/h/kg
[17]
  Vd: 18.6 L/kg
[18]
  inhibition: 48%
[19]
  inhibition: 88%
[20]
  inhibition: 23%
[21]
  inhibition: 24%
[22]
  inhibition: 26%
[23]
  inhibition: 15%
[24]
  inhibition: 20%
[25]
  inhibition: 14%
[26]
  inhibition: 90%
[27]
  inhibition: 89%
[28]
  inhibition: 81%
[29]
  inhibition: 73%
[30]
  inhibition: 71%
[31]
  inhibition: 68%
[32]
  inhibition: 54%
[33]
  inhibition: 51%
Mus musculus [34]
  inhibition in vivo at 25 mg/kg: ≤ 64%
Mus musculus [35]; KG-1, po
  inhibition in vivo at 25 mg/kg: 56%
[36]
  concentration at 8 h: 24 µM
[37]
  concentration at 24 h: 7.9 µM
[38]
  concentration at 8 h: 0.92 µM
[39]
  concentration at 24 h: 0.06 µM
[40]
  fraction unbound: 0.02
[41]
  Activity: < 10%
KG-1 [42]
  T/C: 60%
KG-1 [43]
  T/C: 56%
KG-1 [44]
  T/C: 33%
[45]
  Cmax: 0.14 µM
[46]
  Cmax: 0.32 µM
[47]
  Cmax: 0.52 µM

## NC(=O)c1cc(Cl)c2c(Cl)c(C#CC3CC3)n([C@H]3CCCNC3)c2n1
[1]
  IC50: 0.7 nM
[2]
  IC50: 9 nM
[3]
  solubility thermodynamic: 13 µM (≈ 4.9 µg/mL)
[5]
  EC50: 28 nM
KG-1 [6]
  EC50: 207 nM
[7]
  Papp at 5 µM: 30 nm/s
[48]
  efflux ratio at 5 µM: 2.5
hERG (KCNH2) [49]
  inhibition at 10 µM: 97%
hERG (KCNH2) [50]
  inhibition at 1 µM: 53%
[8]
  hepatic extraction ratio at 5 µM: 0.21
Mus musculus [35]
  inhibition: Active
